{"source": "ChEMBL document CHEMBL4364281", "about": "“Design of wogonin-inspired selective cyclin-dependent kinase 9 (CDK9) inhibitors with potent in vitro and in vivo antitumor activity” (Eur J Med Chem, 2019)", "key": {"MV4-11 [1]": {"system": "MV4-11", "experiment": "Cell cycle arrest in human MV4-11 cells assessed as accumulation at S phase at 0.25 uM after 24 hrs propidium iodide staining based flow cytometry (reference value: 26.06%)", "assay_type": "functional"}, "HeLa": {"system": "HeLa", "experiment": "Antiproliferative activity against human HeLa cells assessed as reduction in cell viability after 72 hrs by MTT assay", "assay_type": "functional, cell-based"}, "MV4-11 [2]": {"system": "MV4-11", "experiment": "Antitumor activity against human MV4-11 cells xenografted in BALB/c mouse assessed as tumour growth inhibition at 45 mg/kg, iv administered every other day for 21 days relative to control", "assay_type": "functional", "details": "MV4-11, iv, 504 h, read-out: TGI"}, "MV4-11 [3]": {"system": "MV4-11", "experiment": "Antitumor activity against human MV4-11 cells xenografted in BALB/c mouse assessed as tumour growth inhibition at 30 mg/kg, iv administered every other day for 21 days relative to control", "assay_type": "functional", "details": "MV4-11, iv, 504 h, read-out: TGI"}, "MV4-11 [4]": {"system": "MV4-11", "experiment": "Induction of apoptosis in human MV4-11 cells assessed as decrease in MCL-1 expression after 4 hrs by Western blot analysis", "assay_type": "functional, cell-based"}, "MV4-11 [5]": {"system": "MV4-11", "experiment": "Antitumor activity against human MV4-11 cells xenografted in BALB/c mouse assessed as tumour growth inhibition at 15 mg/kg, iv administered every other day for 21 days relative to control", "assay_type": "functional", "details": "MV4-11, iv, 504 h, read-out: TGI"}, "CDK2/Cyclin A2": {"biological_target": "CDK2/Cyclin A2 (Homo sapiens, UniProt P24941)", "description": "Inhibition of human CDK2/cyclin-A2 using H1 histone as substrate after 2 hrs by [gamma-33P]-ATP assay"}, "HepG2": {"system": "HepG2", "experiment": "cells", "details": "Homo sapiens, HepG2, 72 h", "description": "Antiproliferative activity against human HepG2 cells assessed as reduction in cell viability after 72 hrs by MTT assay"}, "MV4-11 [6]": {"system": "MV4-11", "experiment": "Cell cycle arrest in human MV4-11 cells assessed as accumulation at G1 phase at 0.05 uM after 24 hrs by propidium iodide staining based flow cytometry (reference value: 41.20%)", "assay_type": "functional"}, "MV4-11 [7]": {"system": "MV4-11", "experiment": "Induction of apoptosis in human MV4-11 cells assessed as viable cells at 0.05 uM after 24 hrs by Annexin-V/propidium iodide staining based flow cytometric method (reference value: 96.94%)", "assay_type": "functional", "details": "MV4-11, 24 h, read-out: Activity"}, "MV4-11 [8]": {"system": "MV4-11", "experiment": "Induction of apoptosis in human MV4-11 cells assessed as late apoptotic cells at 0.25 uM after 24 hrs by Annexin-V/propidium iodide staining based flow cytometric method (reference value: 0.07%)", "assay_type": "functional"}, "MV4-11 [9]": {"system": "MV4-11", "experiment": "Induction of apoptosis in human MV4-11 cells assessed as viable cells at 0.25 uM after 24 hrs by Annexin-V/propidium iodide staining based flow cytometric method (reference value: 96.94%)", "assay_type": "functional", "details": "MV4-11, 24 h, read-out: Activity"}, "physchem [10]": {"experiment": "physchem", "details": "buffer, pH 7.4", "description": "Hydrophobicity, log D of compound at pH 7.4"}, "MV4-11 [11]": {"system": "MV4-11", "experiment": "Induction of apoptosis in human MV4-11 cells by Annexin-V/propidium iodide staining based flow cytometric method", "assay_type": "functional, cell-based"}, "MV4-11 [12]": {"system": "MV4-11", "experiment": "Induction of apoptosis in human MV4-11 cells assessed as effect on BCL-2 expression after 4 hrs by Western blot analysis", "assay_type": "functional, cell-based"}, "MCF7": {"system": "MCF7", "experiment": "Antiproliferative activity against human MCF7 cells assessed as reduction in cell viability after 72 hrs by MTT assay", "assay_type": "functional, cell-based", "details": "MCF7, 72 h"}, "A549": {"system": "A549", "experiment": "cells", "details": "Homo sapiens, A549, 72 h", "description": "Antiproliferative activity against human A549 cells assessed as reduction in cell viability after 72 hrs by MTT assay"}, "SW480": {"system": "SW480", "experiment": "Antiproliferative activity against human SW480 cells assessed as reduction in cell viability after 72 hrs by MTT assay", "assay_type": "functional, cell-based", "details": "SW480, 72 h"}, "HL-60": {"system": "HL-60", "experiment": "Antiproliferative activity against human HL60 cells assessed as reduction in cell viability after 72 hrs by MTT assay", "assay_type": "functional, cell-based", "details": "HL-60, 72 h"}, "MV4-11 [13]": {"system": "MV4-11", "experiment": "Induction of apoptosis in human MV4-11 cells assessed as late apoptotic cells at 1.25 uM after 24 hrs by Annexin-V/propidium iodide staining based flow cytometric method (reference value: 0.07%)", "assay_type": "functional"}, "CDK9/cyclin T1": {"biological_target": "CDK9/cyclin T1 (Homo sapiens, UniProt P50750)", "sequence (O60563 whole entry)": "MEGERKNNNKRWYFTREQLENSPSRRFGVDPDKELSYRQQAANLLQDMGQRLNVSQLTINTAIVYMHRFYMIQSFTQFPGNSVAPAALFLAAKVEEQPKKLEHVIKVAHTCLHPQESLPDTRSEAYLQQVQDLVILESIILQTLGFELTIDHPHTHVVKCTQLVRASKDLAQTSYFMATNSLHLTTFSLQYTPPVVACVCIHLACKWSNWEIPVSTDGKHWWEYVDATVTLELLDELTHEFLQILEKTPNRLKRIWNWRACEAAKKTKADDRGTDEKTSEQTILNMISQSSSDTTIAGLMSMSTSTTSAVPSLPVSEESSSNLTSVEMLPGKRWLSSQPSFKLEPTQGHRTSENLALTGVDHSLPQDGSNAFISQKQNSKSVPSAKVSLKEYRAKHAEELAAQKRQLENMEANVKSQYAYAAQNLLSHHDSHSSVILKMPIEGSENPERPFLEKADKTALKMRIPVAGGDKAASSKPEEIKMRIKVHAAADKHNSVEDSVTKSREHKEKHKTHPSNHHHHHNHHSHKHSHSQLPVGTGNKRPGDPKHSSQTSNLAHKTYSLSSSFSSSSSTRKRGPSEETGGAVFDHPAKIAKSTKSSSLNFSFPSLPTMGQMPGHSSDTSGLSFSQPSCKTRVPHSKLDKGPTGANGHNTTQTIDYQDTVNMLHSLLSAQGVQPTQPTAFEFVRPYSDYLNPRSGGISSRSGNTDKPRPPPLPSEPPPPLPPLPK", "sequence (P50750 whole entry)": "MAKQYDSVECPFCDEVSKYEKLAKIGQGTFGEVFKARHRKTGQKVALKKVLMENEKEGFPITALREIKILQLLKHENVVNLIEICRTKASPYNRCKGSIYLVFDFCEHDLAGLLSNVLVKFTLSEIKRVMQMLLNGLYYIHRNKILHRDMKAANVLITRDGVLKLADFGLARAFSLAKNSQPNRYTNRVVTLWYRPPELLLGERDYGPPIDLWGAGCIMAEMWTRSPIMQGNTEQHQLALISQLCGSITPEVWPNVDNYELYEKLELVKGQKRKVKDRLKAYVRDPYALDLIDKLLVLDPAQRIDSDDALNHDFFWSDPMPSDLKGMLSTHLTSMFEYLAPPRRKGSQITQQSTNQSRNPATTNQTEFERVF"}, "MV4-11 [14]": {"system": "MV4-11", "experiment": "Cell cycle arrest in human MV4-11 cells assessed as accumulation at G1 phase at 1.25 uM after 24 hrs by propidium iodide staining based flow cytometry (reference value: 41.20%)", "assay_type": "functional"}, "physchem [15]": {"experiment": "physchem", "description": "Intrinsic solubility of compound by potentiometric titration assay"}, "MV4-11 [16]": {"system": "MV4-11", "experiment": "Induction of apoptosis in human MV4-11 cells assessed as increase in cleaved PARP level after 24 hrs by Western blot analysis", "assay_type": "functional, cell-based"}, "MV4-11 [17]": {"system": "MV4-11", "experiment": "Cell cycle arrest in human MV4-11 cells assessed as accumulation at S phase at 0.05 uM after 24 hrs propidium iodide staining based flow cytometry (reference value: 26.06%)", "assay_type": "functional"}, "[18]": {"experiment": "Toxicity in BALB/c mouse assessed as effect on body weight at 15 to 45 mg/kg, iv administered every other day for 21 days", "assay_type": "organism-based", "details": "in vivo, 504 h"}, "[19]": {"experiment": "Antiproliferative activity against human BGC803 cells assessed as reduction in cell viability after 72 hrs by MTT assay", "assay_type": "functional, cell-based", "details": "BGC803, 72 h"}, "MV4-11 [20]": {"system": "MV4-11", "experiment": "Induction of apoptosis in human MV4-11 cells assessed as late apoptotic cells at 0.05 uM after 24 hrs by Annexin-V/propidium iodide staining based flow cytometric method (reference value: 0.07%)", "assay_type": "functional"}, "MV4-11 [21]": {"system": "MV4-11", "experiment": "Induction of apoptosis in human MV4-11 cells assessed as necrotic cells at 1.25 uM after 24 hrs by Annexin-V/propidium iodide staining based flow cytometric method (reference value: 2.64%)", "assay_type": "functional"}, "MV4-11 [22]": {"system": "MV4-11", "experiment": "Cell cycle arrest in human MV4-11 cells assessed as accumulation at G1 phase at 0.25 uM after 24 hrs after 24 hrs by propidium iodide staining based flow cytometry (reference value: 41.20%)", "assay_type": "functional"}, "HEK293": {"system": "HEK293", "experiment": "Cytotoxicity against human HEK293 cells assessed as reduction in cell viability after 72 hrs by MTT assay", "assay_type": "cell-based", "details": "HEK293, 72 h"}, "L02": {"system": "L02", "experiment": "Cytotoxicity against human LO2 cells assessed as reduction in cell viability after 72 hrs by MTT assay", "assay_type": "cell-based", "details": "L02, 72 h"}, "MV4-11 [23]": {"system": "MV4-11", "experiment": "Induction of apoptosis in human MV4-11 cells assessed as viable cells at 1.25 uM after 24 hrs by Annexin-V/propidium iodide staining based flow cytometric method (reference value: 96.94%)", "assay_type": "functional", "details": "MV4-11, 24 h, read-out: Activity"}, "MV4-11 [24]": {"system": "MV4-11", "experiment": "cells", "details": "Homo sapiens, MV4-11, 72 h", "description": "Antiproliferative activity against human MV4-11 cells assessed as reduction in cell viability after 72 hrs by MTT assay"}, "physchem [25]": {"experiment": "physchem", "details": "methanesulfonic acid buffer, pH 4.5", "description": "Solubility of compound in methanesulfonic acid buffer at pH 4.5"}, "THP-1": {"system": "THP-1", "experiment": "Antiproliferative activity against human THP1 cells assessed as reduction in cell viability after 72 hrs by MTT assay", "assay_type": "functional, cell-based", "details": "THP-1, 72 h"}, "MV4-11 [26]": {"system": "MV4-11", "experiment": "Induction of apoptosis in human MV4-11 cells assessed as early apoptotic cells at 0.05 uM after 24 hrs by Annexin-V/propidium iodide staining based flow cytometric method (reference value: 0.36%)", "assay_type": "functional"}, "RPMI-8226": {"system": "RPMI-8226", "experiment": "Antiproliferative activity against human RPMI8226 cells assessed as reduction in cell viability after 72 hrs by MTT assay", "assay_type": "functional, cell-based", "details": "RPMI-8226, 72 h"}, "CCRF-CEM": {"system": "CCRF-CEM", "experiment": "Antiproliferative activity against human CEM cells assessed as reduction in cell viability after 72 hrs by MTT assay", "assay_type": "functional, cell-based"}, "HT-29": {"system": "HT-29", "experiment": "Antiproliferative activity against human HT-29 cells assessed as reduction in cell viability after 72 hrs by MTT assay", "assay_type": "functional, cell-based", "details": "HT-29, 72 h"}, "MV4-11 [27]": {"system": "MV4-11", "experiment": "Cell cycle arrest in human MV4-11 cells assessed as accumulation at G2 phase at 0.05 uM after 24 hrs propidium iodide staining based flow cytometry (reference value: 22.73%)", "assay_type": "functional"}}, "note": "The source made the active and inactive calls. No cut-off for these calls is given here.", "data": [{"smiles": "COc1cc(O)c2c(=O)cc(-c3ccc(N4CCN(C)CC4)cc3)oc2c1Oc1c(C)n[nH]c1C", "values": [{"measurement": "Activity", "setting": "MV4-11 [1]", "value": 30.91, "unit": "%"}, {"measurement": "IC50", "setting": "HeLa", "value": 2320, "unit": "nM"}, {"measurement": "inhibition in vivo at 45 mg/kg", "setting": "MV4-11 [2]", "value": 53, "unit": "%"}, {"measurement": "inhibition in vivo at 30 mg/kg", "setting": "MV4-11 [3]", "value": 42.6, "unit": "%"}, {"measurement": "Activity", "setting": "MV4-11 [4]", "value": "Dose-dependent effect"}, {"measurement": "inhibition in vivo at 15 mg/kg", "setting": "MV4-11 [5]", "value": 22.9, "unit": "%"}, {"measurement": "IC50", "setting": "CDK2/Cyclin A2", "value": 913, "unit": "nM"}, {"measurement": "IC50", "setting": "HepG2", "value": 2670, "unit": "nM"}, {"measurement": "Activity", "setting": "MV4-11 [6]", "value": 48.27, "unit": "%"}, {"measurement": "viability at 0.05 µM", "setting": "MV4-11 [7]", "value": 74.8, "unit": "%"}, {"measurement": "Activity", "setting": "MV4-11 [8]", "value": 7.29, "unit": "%"}, {"measurement": "viability at 0.25 µM", "setting": "MV4-11 [9]", "value": 63.7, "unit": "%"}, {"measurement": "logD", "setting": "physchem [10]", "value": 2.01}, {"measurement": "Activity", "setting": "MV4-11 [11]", "value": "Dose-dependent effect"}, {"measurement": "Activity", "setting": "MV4-11 [12]", "value": "inactive"}, {"measurement": "IC50", "setting": "MCF7", "value": 480, "unit": "nM"}, {"measurement": "IC50", "setting": "A549", "value": 1810, "unit": "nM"}, {"measurement": "IC50", "setting": "SW480", "value": 1860, "unit": "nM"}, {"measurement": "IC50", "setting": "HL-60", "value": 5.21, "unit": "µM"}, {"measurement": "Activity", "setting": "MV4-11 [13]", "value": 9.05, "unit": "%"}, {"measurement": "IC50", "setting": "CDK9/cyclin T1", "value": 19.9, "unit": "nM"}, {"measurement": "Activity", "setting": "MV4-11 [14]", "value": 62.77, "unit": "%"}, {"measurement": "solubility", "setting": "physchem [15]", "value": 28, "unit": "µg/mL"}, {"measurement": "Activity", "setting": "MV4-11 [16]", "value": "Dose-dependent effect"}, {"measurement": "Activity", "setting": "MV4-11 [17]", "value": 33.91, "unit": "%"}, {"measurement": "Activity", "setting": "[18]", "value": "Non-Toxic"}, {"measurement": "IC50", "setting": "[19]", "value": 3.12, "unit": "µM"}, {"measurement": "Activity", "setting": "MV4-11 [20]", "value": 5.53, "unit": "%"}, {"measurement": "Activity", "setting": "MV4-11 [21]", "value": 6.46, "unit": "%"}, {"measurement": "Activity", "setting": "MV4-11 [22]", "value": 55.77, "unit": "%"}, {"measurement": "IC50", "setting": "HEK293", "value": 22.1, "unit": "µM"}, {"measurement": "IC50", "setting": "L02", "value": 15.1, "unit": "µM"}, {"measurement": "viability at 1.25 µM", "setting": "MV4-11 [23]", "value": 58.1, "unit": "%"}, {"measurement": "IC50", "setting": "MV4-11 [24]", "value": 20, "unit": "nM"}, {"measurement": "solubility", "setting": "physchem [25]", "value": 4540, "unit": "µg/mL"}, {"measurement": "IC50", "setting": "THP-1", "value": 790, "unit": "nM"}, {"measurement": "Activity", "setting": "MV4-11 [26]", "value": 12.42, "unit": "%"}, {"measurement": "IC50", "setting": "RPMI-8226", "value": 820, "unit": "nM"}, {"measurement": "IC50", "setting": "CCRF-CEM", "value": 1240, "unit": "nM"}, {"measurement": "IC50", "setting": "HT-29", "value": 1800, "unit": "nM"}, {"measurement": "Activity", "setting": "MV4-11 [27]", "value": 17.82, "unit": "%"}]}]}
